Source: patent publication US20150374672A1, “PRE-SELECTION OF SUBJECTS FOR THERAPEUTIC TREATMENT WITH AN HSP90 INHIBITORY COMPOUND BASED ON CHEMOSENSITIVE STATUS” (Synta Pharmaceuticals Corp., priority 2014, published 2015)
One block for each compound: values may come before it.

Columns and labels:
[1] = GALAXY-1 safety profile (adverse events) in adenocarcinoma patients
Method: (§1) Patients in both arms of GALAXY-1 received a standard regimen of docetaxel 75 mg/m^2 on day 1 of a 21-day treatment cycle. Patients in the combination arm also received ganetespib 150 mg/m^2 on days 1 and 15. Treatment continued until disease progression or until treatment intolerance. To ensure balance of prognostic factors between the two arms, patients were stratified by ECOG performance status (these scales and criteria are used by doctors and researchers to assess how a patient's disease is progressing, assess how the disease affects the daily living abilities of the patient, and determine appropriate treatment and prognosis), baseline lactate dehydrogenase (LDH) level, smoking status, and time since diagnosis of advanced disease.

advanced NSCLC = assay: GALAXY-1 Phase 2b trial, ganetespib plus docetaxel vs. docetaxel alone: OS and PFS; assay type: in vivo, human
Description: The GALAXY-1 trial was initiated in patients with advanced NSCLC who received one prior treatment for advanced disease, i.e., a second-line treatment setting. GALAXY-1 compared treatment with docetaxel (D) alone, which is approved for second-line treatment, vs. treatment with ganetespib (G) plus docetaxel (D). The aims of the study were to:
The key GALAXY-1 patient populations comprised populations with (1) elevated LDH (eLDH), (2) KRAS mutations (mKRAS) and/or (3) time since diagnosis of cancer of 6 months or greater (chemosensitive). A rationale for selecting a population with elevated LDH is that LDH-A is a marker of HIF-1α activity, and HIF-1α is a Hsp90 client, and drives invasiveness and metastasis. A rationale for selecting a population with KRAS mutation is that RAS signaling kinases are Hsp90 clients, and there is a medical need. A rationale for selecting a population in which the time since diagnosis of cancer is 6 months or greater (chemosensitive population) is that key cell cycle checkpoint/DNA repair kinases are Hsp90 clients. Additionally, key mitochondrial apoptosis pathway proteins are Hsp90 clients.
as §1
To ensure the specified number of eLDH and mKRAS patients were included, a total of 385 patients were enrolled in GALAXY-1.
Hazard ratios were calculated with Cox proportional hazards model. • Unadjusted: univariate analysis • Adjusted: pre-specified analysis adjusting for multiple prognostic variables such as gender, smoking status, LDH, ECOG performance status, interval since diagnosis of advanced disease, age, total baseline target lesion size, and geographic region.
This was a randomized, multicenter, parallel group study. Patients in both arms were treated with docetaxel per standard practice until disease progression or intolerability. Patients on both arms were treated until intolerability or disease progression per RECIST.
Key eligibility criteria were Stage IIIB/IV NSCLC; ECOG 0,1; one prior therapy in advanced setting; measurable disease by RECIST; documented disease progression; clinically stable CNS metastases; available tumor tissues; and adequate organ function.
Patients were randomized in a 1:1 ratio to receive either ganetespib in combination with docetaxel or docetaxel alone.
The experimental arm was dosed with ganetespib in combination with docetaxel 75 mg/m^2. Ganetespib (150 mg/m^2) and docetaxel (75 mg/m^2) were administered on Day 1 of a 3-week cycle. Ganetespib (150 mg/m^2) was administered again on Day 15 of each 3-week cycle. Docetaxel 75 mg/m^2 was administered on Day 1 of a 3-week treatment cycle. 385 patients were enrolled. A total of 381 patients received at least one dose of study drug.

[2] = test system: advanced solid tumor malignancies; assay: Phase 1 dose-escalation, pharmacokinetic study of ganetespib in combination with docetaxel; assay type: in vivo, human; details: ganetespib schedule Days 1 and 15 of each cycle, preliminary data
Method: Patients were dosed once-weekly. Dosing was with 150 mg/m^2 ganetespib (days 1 and 15)+60 mg/m^2 docetaxel (Day 1). Initial ganetespib dosing regimen was Days 1 and 8; however, Day 8 was later changed to Day 15. Day 4 dosing with single agent ganetespib was added. The dose cycle was 2 weeks+1 week rest. The primary objective of this study was to determine the recommended doses for the combination of ganetespib and docetaxel in patients with advanced solid tumor malignancies. Secondary objectives were to define the DLTs associated with ganetespib in combination with docetaxel dosing, assess possible PK effects, and evaluate the safety, tolerability, and preliminary evidence of anti-tumor activity of the combination. A total of 27 patients were enrolled.

[3] = test system: solid and hematologic cancers; assay: Preclinical studies of anti-cancer activity; details: monotherapy and in combination with widely used anti-cancer agents
[4] = Safety of ganetespib across clinical trials (over 1,000 patients); assay type: in vivo, human
Description: Ganetespib has been evaluated in a broad range of cancer clinical trials including the GALAXY NSCLC program (GALAXY-1 and GALAXY-2) in combination with docetaxel chemotherapy, and as monotherapy in certain genetically-defined targeted patient populations. A favorable safety profile has been consistently observed across clinical trials, involving over 1,000 patients treated with ganetespib to date. […] In the clinical trials conducted to date, ganetespib has shown promising activity both in combination with chemotherapy and as a monotherapy.

[5] = Adenocarcinoma population, N = 253
[6] = Chemosensitive population, N = 177

SMILES: CC(=O)O[C@@]12CO[C@@H]1C[C@H](O)[C@@]1(C)C(=O)[C@H](O)C3=C(C)[C@@H](OC(=O)[C@H](O)[C@@H](NC(=O)OC(C)(C)C)c4ccccc4)C[C@@](O)([C@@H](OC(=O)c4ccccc4)[C@H]21)C3(C)C [D, docetaxel]
proportion of patients with AEs leading to death ([1]; adenocarcinoma patients): 12%
diarrhea, all grades ([1]; human, in vivo): 16%
fatigue, all grades ([1]; human, in vivo): 24%
grade 3 or 4 anemia ([1]; human, in vivo): 2%
grade 3 or 4 fatigue ([1]; human, in vivo): 4%
grade 3 or 4 febrile neutropenia ([1]; human, in vivo): 4%
grade 3 or 4 neutropenia ([1]; human, in vivo): 42%
incidence of grade 3 or 4 diarrhea ([1]; human, in vivo): 0%
neutropenia, all grades ([1]; human, in vivo): 45%
proportion of patients with AEs leading to treatment discontinuation ([1]; human, in vivo): 6%
Median OS (advanced NSCLC; [5]): 8.4 months
Median PFS (advanced NSCLC; [5]): 3.2 months
Median OS (advanced NSCLC; [6]): 7.4 months
Median PFS (advanced NSCLC; [6]): 3.4 months
Median OS (advanced NSCLC; eLDH population, N = 87): 5.1 months
Median PFS (advanced NSCLC; eLDH population, N = 87): 2.7 months
Median OS (advanced NSCLC; mKRAS population, N = 89): 6.4 months
Median PFS (advanced NSCLC; mKRAS population, N = 89): 3.0 months
recommended Phase 2 dose [2]: 75 mg/m^2

recommended Phase 2 dose [2]: 150 mg/m^2
SMILES: CC(C)c1cc(-c2nnc(O)n2-c2ccc3c(ccn3C)c2)c(O)cc1O [Ganetespib]
anti-cancer activity in preclinical studies [3]: potent anti-cancer activity
most common adverse event ([4]; clinical trials): transient, mild or moderate diarrhea
toxicities observed across clinical trials ([4]; over 1,000 patients treated): not shown the serious liver or common ocular toxicities
